{"source": "patent US20100298141A1", "about": "“SUBSTITUTED PYRIDINE N-OXIDE HERBICIDES” (E. I. DU PONT DE NEMOURS AND COMPANY, priority 2007, published 2010)", "key": {"barnyardgrass [1]": {"system": "barnyardgrass", "experiment": "Test A pre-/postemergence greenhouse test", "format": "in vivo, Echinochloa crus-galli", "settings": "for Plant response rating, Barnyardgrass: 0 to 100 scale where 0 is no effect and 100 is complete control; for Barnyardgrass plant response rating: 0 to 100 scale", "procedure,_shortened": "(§1)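 Herbicidal effect is a visual injury score given about ten days post-treatment by comparison with untreated controls. Preemergence plots received a directed spray onto sown loam–sand soil; postemergence plants, at the one- to two-leaf stage and 2–10 cm tall, were sprayed at the same time.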"}, "crabgrass [2]": {"system": "crabgrass", "experiment": "Test A pre-/postemergence greenhouse test", "format": "in vivo, Digitaria sanguinalis", "settings": "for Plant response rating, Crabgrass, Large: 0 to 100 scale where 0 is no effect and 100 is complete control; for Crabgrass, Large plant response rating: 0 to 100 scale", "procedure,_shortened": "as §1"}, "velvetleaf": {"system": "velvetleaf", "experiment": "Test A pre-/postemergence greenhouse test", "format": "in vivo, Abutilon theophrasti", "settings": "for Plant response rating, Velvetleaf: 0 to 100 scale where 0 is no effect and 100 is complete control; for Velvetleaf plant response rating: 0 to 100 scale", "procedure,_shortened": "as §1"}, "corn [3]": {"system": "corn", "experiment": "Test A pre-/postemergence greenhouse test", "format": "in vivo, Zea mays", "settings": "for Plant response rating, Corn: 0 to 100 scale where 0 is no effect and 100 is complete control; for Corn plant response rating: 0 to 100 scale", "procedure,_shortened": "as §1"}, "green foxtail": {"system": "green foxtail", "experiment": "Test C pre-/postemergence test", "format": "in vivo, Setaria viridis", "procedure,_shortened": "(§2)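 Seeds were planted and treated preemergence with test chemical in a non-phytotoxic solvent mixture containing surfactant. Postemergence applications of the same formulation went onto plants 2 to 18 cm tall (1- to 4-leaf stage). A dash marks no test result.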"}, "Italian ryegrass": {"system": "Italian ryegrass", "experiment": "Test C pre-/postemergence test", "format": "in vivo, Lolium multiflorum", "procedure,_shortened": "as §2"}, "bermudagrass": {"system": "bermudagrass", "experiment": "Test C pre-/postemergence test", "format": "in vivo, Cynodon dactylon", "procedure,_shortened": "as §2"}, "corn [4]": {"system": "corn", "experiment": "Test C pre-/postemergence test", "format": "in vivo, Zea mays", "procedure,_shortened": "as §2"}, "crabgrass [5]": {"system": "crabgrass", "experiment": "Test C pre-/postemergence test", "format": "in vivo, Digitaria sanguinalis", "procedure,_shortened": "as §2"}, "Goosegrass": {"system": "Goosegrass", "experiment": "Test C pre-/postemergence test", "format": "in vivo, Eleusin indica", "procedure,_shortened": "as §2"}, "johnsongrass": {"system": "johnsongrass", "experiment": "Test C pre-/postemergence test", "format": "in vivo, Sorghum halepense", "procedure,_shortened": "as §2"}, "yellow nutsedge": {"system": "yellow nutsedge", "experiment": "Test C pre-/postemergence test", "format": "in vivo, Cyperus esculentus", "procedure,_shortened": "as §2"}, "pigweed": {"system": "pigweed", "experiment": "Test C pre-/postemergence test", "format": "in vivo, Amaranthus retroflexus", "procedure,_shortened": "as §2"}, "soybean": {"system": "soybean", "experiment": "Test C pre-/postemergence test", "format": "in vivo, Glycine max", "procedure,_shortened": "as §2"}, "umbrella sedge": {"system": "umbrella sedge", "experiment": "Test C flooded paddy test", "format": "in vivo, Cyperus difformis", "settings": "Flood", "procedure,_shortened": "(§3)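 In-water treatment: compound dosed into 3 cm flood over soil, water level unchanged throughout. Controls run alongside; visual assessment at day 13–15.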"}, "duck salad": {"system": "duck salad", "experiment": "Test C flooded paddy test", "format": "in vivo, Heteranthera limosa", "settings": "Flood", "procedure,_shortened": "as §3"}, "barnyardgrass [6]": {"system": "barnyardgrass", "experiment": "Test C flooded paddy test", "format": "in vivo, Echinochloa crus-galli", "settings": "Flood", "procedure,_shortened": "as §3"}, "[7]": {"settings": "Postemergence, 500 g ai/ha, 0 is no effect, 100 is complete control"}, "[8]": {"settings": "Preemergence, 125 g ai/ha, 0 no effect, 100 complete control"}, "[9]": {"settings": "62 g ai/ha, Preemergence, scale 0 to 100"}, "[10]": {"settings": "125 g ai/ha, preemergence, scale 0 (no effect) to 100 (complete control)"}, "[11]": {"settings": "Preemergence, 31 g ai/ha, scale 0 to 100 (0 no effect, 100 complete control)"}, "[12]": {"settings": "preemergence, 250 g ai/ha, scale 0 (no effect) to 100 (complete control)"}, "[13]": {"settings": "31 g ai/ha, scale 0 to 100 (0 no effect, 100 complete control)"}, "[14]": {"settings": "125 g ai/ha, scale 0 to 100, 0 no effect, 100 complete control, 13 to 15 days"}, "[15]": {"settings": "250 g ai/ha, scale 0 to 100, 0 no effect, 100 complete control, 13 to 15 days"}, "[16]": {"settings": "62 g ai/ha, scale 0 to 100, 0 no effect, 100 complete control, 13 to 15 days"}}, "data": [{"smiles": "Cn1nc(C(F)(F)F)c(C[S+]([O-])c2ccc(F)c[n+]2[O-])c1Cl", "note": "(centres unmarked) [Compound 54]", "values": [{"measurement": "Plant response rating, Barnyardgrass", "setting": "barnyardgrass [1]; Postemergence, 125 g ai/ha", "result": 70}, {"measurement": "Barnyardgrass plant response rating", "setting": "barnyardgrass [1]; [7]", "result": 80}, {"measurement": "Barnyardgrass plant response rating", "setting": "barnyardgrass [1]; [8]", "result": 80}, {"measurement": "Plant response rating, Barnyardgrass", "setting": "barnyardgrass [1]; Preemergence, 500 g ai/ha", "result": 90}, {"measurement": "Plant response rating, Crabgrass, Large", "setting": "crabgrass [2]; Postemergence, 125 g ai/ha", "result": 20}, {"measurement": "Crabgrass, Large plant response rating", "setting": "crabgrass [2]; [7]", "result": 80}, {"measurement": "Crabgrass, Large plant response rating", "setting": "crabgrass [2]; [8]", "result": 80}, {"measurement": "Plant response rating, Crabgrass, Large", "setting": "crabgrass [2]; Preemergence, 500 g ai/ha", "result": 90}, {"measurement": "Plant response rating, Velvetleaf", "setting": "velvetleaf; Postemergence, 125 g ai/ha", "result": 10}, {"measurement": "Velvetleaf plant response rating", "setting": "velvetleaf; [7]", "result": 70}, {"measurement": "Velvetleaf plant response rating", "setting": "velvetleaf; [8]", "result": 30}, {"measurement": "Plant response rating, Velvetleaf", "setting": "velvetleaf; Preemergence, 500 g ai/ha", "result": 70}, {"measurement": "Plant response rating, Corn", "setting": "corn [3]; Postemergence, 125 g ai/ha", "result": 0}, {"measurement": "Corn plant response rating", "setting": "corn [3]; [7]", "result": 60}, {"measurement": "Corn plant response rating", "setting": "corn [3]; [8]", "result": 20}, {"measurement": "Plant response rating, Corn", "setting": "corn [3]; Preemergence, 500 g ai/ha", "result": 70}, {"measurement": "Foxtail, Green plant response rating", "setting": "green foxtail; [9]", "result": 95}, {"measurement": "Foxtail, Green plant response rating", "setting": "green foxtail; [10]", "result": 95}, {"measurement": "Plant response rating, Foxtail, Green", "setting": "green foxtail; [11]", "result": 60}, {"measurement": "Foxtail, Green plant response rating", "setting": "green foxtail; [12]", "result": 95}, {"measurement": "Ryegrass, Italian plant response rating", "setting": "Italian ryegrass; [9]", "result": 45}, {"measurement": "Ryegrass, Italian plant response rating", "setting": "Italian ryegrass; [10]", "result": 70}, {"measurement": "Plant response rating, Ryegrass, Italian", "setting": "Italian ryegrass; [11]", "result": 0}, {"measurement": "Ryegrass, Italian plant response rating", "setting": "Italian ryegrass; [12]", "result": 98}, {"measurement": "Bermudagrass plant response rating", "setting": "bermudagrass; 62 g ai/ha, Preemergence, scale 0 to 100 (0 no effect, 100 complete control)", "result": 100}, {"measurement": "Bermudagrass plant response rating", "setting": "bermudagrass; [10]", "result": 100}, {"measurement": "Plant response rating, Bermudagrass", "setting": "bermudagrass; [11]", "result": 98}, {"measurement": "Bermudagrass plant response rating", "setting": "bermudagrass; [12]", "result": 100}, {"measurement": "Corn plant response rating", "setting": "corn [4]; [9]", "result": 80}, {"measurement": "Corn plant response rating", "setting": "corn [4]; [10]", "result": 85}, {"measurement": "Plant response rating, Corn", "setting": "corn [4]; [11]", "result": 55}, {"measurement": "Corn plant response rating", "setting": "corn [4]; [12]", "result": 98}, {"measurement": "Crabgrass, Large plant response rating", "setting": "crabgrass [5]; [9]", "result": 100}, {"measurement": "Crabgrass, Large plant response rating", "setting": "crabgrass [5]; [10]", "result": 100}, {"measurement": "Plant response rating, Crabgrass, Large", "setting": "crabgrass [5]; [11]", "result": 85}, {"measurement": "Crabgrass, Large plant response rating", "setting": "crabgrass [5]; [12]", "result": 100}, {"measurement": "Goosegrass plant response rating", "setting": "Goosegrass; [9]", "result": 100}, {"measurement": "Goosegrass plant response rating", "setting": "Goosegrass; [10]", "result": 100}, {"measurement": "Plant response rating, Goosegrass", "setting": "Goosegrass; [11]", "result": 95}, {"measurement": "Goosegrass plant response rating", "setting": "Goosegrass; [12]", "result": 100}, {"measurement": "Johnsongrass plant response rating", "setting": "johnsongrass; [9]", "result": 95}, {"measurement": "Johnsongrass plant response rating", "setting": "johnsongrass; [10]", "result": 100}, {"measurement": "Plant response rating, Johnsongrass", "setting": "johnsongrass; [11]", "result": 90}, {"measurement": "Johnsongrass plant response rating", "setting": "johnsongrass; [12]", "result": 100}, {"measurement": "Nutsedge, Yellow plant response rating", "setting": "yellow nutsedge; [9]", "result": 65}, {"measurement": "Nutsedge, Yellow plant response rating", "setting": "yellow nutsedge; [10]", "result": 100}, {"measurement": "Plant response rating, Nutsedge, Yellow", "setting": "yellow nutsedge; [11]", "result": 0}, {"measurement": "Nutsedge, Yellow plant response rating", "setting": "yellow nutsedge; [12]", "result": 100}, {"measurement": "Pigweed plant response rating", "setting": "pigweed; [9]", "result": 100}, {"measurement": "Pigweed plant response rating", "setting": "pigweed; [10]", "result": 100}, {"measurement": "Plant response rating, Pigweed", "setting": "pigweed; [11]", "result": 0}, {"measurement": "Pigweed plant response rating", "setting": "pigweed; [12]", "result": 100}, {"measurement": "Plant response rating, Soybean", "setting": "soybean; [11]", "result": 0}, {"measurement": "Soybean plant response rating", "setting": "soybean; [12]", "result": 60}, {"measurement": "Plant response rating, Sedge, Umbrella", "setting": "umbrella sedge; [13]", "result": 0}, {"measurement": "Plant response rating, Sedge, Umbrella", "setting": "umbrella sedge; [14]", "result": 60}, {"measurement": "Plant response rating, Sedge, Umbrella", "setting": "umbrella sedge; [15]", "result": 100}, {"measurement": "Plant response rating, Ducksalad", "setting": "duck salad; [13]", "result": 0}, {"measurement": "Plant response rating, Ducksalad", "setting": "duck salad; [16]", "result": 0}, {"measurement": "Plant response rating, Ducksalad", "setting": "duck salad; [14]", "result": 0}, {"measurement": "Plant response rating, Ducksalad", "setting": "duck salad; [15]", "result": 85}, {"measurement": "Plant response rating, Barnyardgrass", "setting": "barnyardgrass [6]; [13]", "result": 0}, {"measurement": "Plant response rating, Barnyardgrass", "setting": "barnyardgrass [6]; [16]", "result": 20}, {"measurement": "Plant response rating, Barnyardgrass", "setting": "barnyardgrass [6]; [14]", "result": 65}, {"measurement": "Plant response rating, Barnyardgrass", "setting": "barnyardgrass [6]; [15]", "result": 80}]}]}
